{"source": "patent US20250152555A1", "about": "“Pharmaceutical Composition for Preventing or Treating Triple-Negative Breast Cancer” (Daewoong Pharmaceutical Co., Ltd., priority 2021, published 2025)", "key": {"[1]": {"test_system": "Hs578T (human triple negative breast cancer cell line)", "experiment": "CellTiter-Glo Luminescent Cell Viability, combined administration of docetaxel (Experimental Example 3)", "format": "cell-based", "quoted_text": "10 μM of Fexuprazan and 1 μM of Doxorubicin were administered singly and in combination, respectively. As a comparative group, 10 μM of Vonoprazan was administered singly or in combination with Doxorubicin. At this time, 0.1% DMSO was used as a solvent for each composition. Further, 0.1% DMSO was used as a vehicle control. Each experimental group was repeated twice. Plates treated with the compound at respective concentrations were incubated in a 5% CO2 incubator at 37° C. for 48 hours. […] The reaction was performed at room temperature in a dark room for 10 minutes, and luminescence was measured using a Flexstation3 multi-mode microplate reader. The luciferase enzyme activity, representing the amount of ATP, was measured by a chemiluminescence method according to CellTiter-Glo® Luminescent Cell Viability instructions, and the inhibitory activity was calculated. […]\nHs578T (human triple negative breast cancer cell line) was incubated in a 96 well clear bottom plate and then stabilized for 24 hours. […] After incubating in a 5% CO2 incubator at 37° C. for 48 hours, the luciferase enzyme activity, representing the amount of ATP, was measured by a chemiluminescence method according to CellTiter-Glo® Luminescent Cell Viability instructions, and the inhibitory activity was calculated. The respective results were analyzed using Microsoft Excel, and significance was confirmed through an unpaired t test in Graphpad Prism software."}, "Hs578T cell line": {"test_system": "Hs578T cell line", "experiment": "CellTiter-Glo Luminescent Cell Viability, optimal molar ratio for combination use with Doxorubicin (Experimental Example 2)", "format": "cell-based, human", "description": "(§1) In order to confirm the anticancer efficacy when Fexuprazan and Doxorubicin were administered in combination, cell proliferation was measured for Hs578T (human triple-negative breast cancer cell line) by a CellTiter-Glo® Luminescent Cell Viability (Promega, Catalog #G7571) method. The above evaluation was performed by a method in which when the luciferase enzyme was activated by ATP leaked from living cells, it reacted with a luciferin substrate, and the enzyme activity at this time was measured to confirm the cell viability.\nSpecifically, 100 μL of cell culture medium (RPMI medium, 10% FBS, 1% P/S, 4.5 g/L D-Glucose, 2.383 g/L HEPES Buffer, L-Glutamine, 1.5 g/L Sodium Bicarbonate, 110 mg/L Sodium pyruvate) was used and each cancer cell line was prepared in a white clear-bottom 96-well microplate. 10 μM of Fexuprazan and 1 μM of Doxorubicin were administered singly and in combination, respectively. As a comparative group, 10 μM of Vonoprazan was administered singly or in combination with Doxorubicin. At this time, 0.1% DMSO was used as a solvent for each composition. […] The reaction was performed at room temperature in a dark room for 10 minutes, and luminescence was measured using a Flexstation3 multi-mode microplate reader. The luciferase enzyme activity, representing the amount of ATP, was measured by a chemiluminescence method according to CellTiter-Glo® Luminescent Cell Viability instructions, and the inhibitory activity was calculated. The results of each compound were analyzed using Microsoft Excel. […]\nIn order to confirm the optimal combination ratio of Fexuprazan to Doxorubicin, cell proliferation was measured using a CellTiter-Glo® Luminescent Cell Viability (Promega, Catalog #G7571) method in the same manner as in Experimental Example 1. […] The cells were incubated in a 5% CO2 incubator at 37° C. for 48 hours, the luciferase enzyme activity, representing the amount of ATP, was measured by a chemiluminescence method according to CellTiter-Glo® Luminescent Cell Viability instructions, and the inhibitory activity of the compound according to this purpose was calculated. […]"}, "[2]": {"test_system": "Hs578T (human triple-negative breast cancer cell line)", "experiment": "CellTiter-Glo Luminescent Cell Viability, combined administration of Doxorubicin (Experimental Example 1)", "format": "cell-based", "settings": "for antitumor effect in combination with Doxorubicin compared to administration alone / synergistic effect with Doxorubicin: 10 μM with 1 μM Doxorubicin, Table 1 and FIG. 1; for viability at 10 µM: single agent 10.0 μM, no Doxorubicin", "description": "as §1\nSpecifically, 100 μL of cell culture medium (RPMI medium, 10% FBS, 1% P/S, 4.5 g/L D-Glucose, 2.383 g/L HEPES Buffer, L-Glutamine, 1.5 g/L Sodium Bicarbonate, 110 mg/L Sodium pyruvate) was used and each cancer cell line was prepared in a white clear-bottom 96-well microplate. 10 μM of Fexuprazan and 1 μM of Doxorubicin were administered singly and in combination, respectively. As a comparative group, 10 μM of Vonoprazan was administered singly or in combination with Doxorubicin. At this time, 0.1% DMSO was used as a solvent for each composition. Further, 0.1% DMSO was used as a vehicle control. Each experimental group was repeated twice. Plates treated with the compound at respective concentrations were incubated in a 5% CO2 incubator at 37° C. for 48 hours. 100 μL/well of the substrate aqueous solution containing luciferin was added to a white clear-bottom 96 well microplate to initiate the enzymatic reaction. The reaction was performed at room temperature in a dark room for 10 minutes, and luminescence was measured using a Flexstation3 multi-mode microplate reader. The luciferase enzyme activity, representing the amount of ATP, was measured by a chemiluminescence method according to CellTiter-Glo® Luminescent Cell Viability instructions, and the inhibitory activity was calculated. The results of each compound were analyzed using Microsoft Excel. Compound concentrations were converted into logarithmic values using GraphPad Prism software and expressed on the graph."}, "[3]": {"settings": "Homo sapiens, Hs-578T, Doxorubicin 1.0 μM alone, 48 hours, read-out: Relative cell viability (%)"}, "[4]": {"settings": "Homo sapiens, Hs-578T, 48 hours, read-out: Relative cell viability (%)"}}}
{"molecule": "CC(=O)O[C@@]12CO[C@@H]1C[C@H](O)[C@@]1(C)C(=O)[C@H](O)C3=C(C)[C@@H](OC(=O)[C@H](O)[C@@H](NC(=O)OC(C)(C)C)c4ccccc4)C[C@@](O)([C@@H](OC(=O)c4ccccc4)[C@H]21)C3(C)C", "note": "[Docetaxel, docetaxel]", "values": [{"measurement": "viability at 0.001 µM", "setting": "[1]; Homo sapiens, Hs-578T, Docetaxel 1.0 nM alone, 48 hours, read-out: Relative cell viability (%)", "value": 88.3, "unit": "%"}, {"measurement": "viability at 0.01 µM", "setting": "[1]; Homo sapiens, Hs-578T, Docetaxel 10.0 nM alone, 48 hours, read-out: Relative cell viability (%)", "value": 49.3, "unit": "%"}, {"measurement": "synergistic effect on the antitumor effect relative to Esomeprazole", "setting": "[1]; docetaxel 1 nM and 10 nM combined with 10 μM Fexuprazan, Table 3 and FIG. 4", "value": "synergistic effect"}]}
{"molecule": "COc1cccc2c1C(=O)c1c(O)c3c(c(O)c1C2=O)C[C@@](O)(C(=O)CO)C[C@@H]3O[C@H]1C[C@H](N)[C@H](O)[C@H](C)O1", "note": "[Doxorubicin]", "values": [{"measurement": "viability at 1 µM", "setting": "Hs578T cell line; [3]", "value": 50, "unit": "%"}, {"measurement": "viability at 1 µM", "setting": "[2]; [3]", "value": 70.6, "unit": "%"}]}
{"molecule": "CNCc1cn(S(=O)(=O)c2cccc(F)c2)c(-c2ccc(F)cc2F)c1OC", "note": "[Fexuprazan, 1-(5-(2,4-difluorophenyl)-1-((3-fluorophenyl)sulfonyl)-4-methoxy-1H-pyrrol-3-yl)-N-methylmethanamine]", "values": [{"measurement": "synergistic effect with Doxorubicin, compared to the combined effect of Esomeprazole", "setting": "Hs578T cell line; molar ratio of Doxorubicin and Fexuprazan 1:5 or more", "value": "synergistic effects"}, {"measurement": "synergistic effect with Doxorubicin, compared to the combined effect of Esomeprazole", "setting": "Hs578T cell line; molar ratios of Doxorubicin and Fexuprazan 1:10 or more", "value": "especially superior"}, {"measurement": "antitumor effect in combination with Doxorubicin compared to administration alone / synergistic effect with Doxorubicin", "setting": "[2]", "value": "superior antitumor effect"}, {"measurement": "viability at 10 µM", "setting": "[2]; [4]", "value": 100, "unit": "%"}]}
{"molecule": "CNCc1cc(-c2ccccc2F)n(S(=O)(=O)c2cccnc2)c1", "note": "[Vonoprazan]", "values": [{"measurement": "antitumor effect in combination with Doxorubicin compared to administration alone / synergistic effect with Doxorubicin", "setting": "[2]", "value": "no synergistic effect"}, {"measurement": "viability at 10 µM", "setting": "[2]; [4]", "value": 92.3, "unit": "%"}]}
